The target in experiment [1] is Cholinesterase (Equus caballus) (UniProt P81908). The experiment is described as follows: Inhibition of equine serum BuChE using S-butyrylthiocholine chloride as substrate.
Experiment [2] addresses Salmon testes DNA. The experiment can be described thus: Binding affinity to salmon DNA isolated from testis using dopamine as substrate in presence of CuCl2. The experiment is classed as nucleic-acid assay, Salmonidae.
Experiment [3] is described as follows: Antioxidant activity assessed as NO radical scavenging activity after 1 hr. It is filed as functional.
A short description of experiment [4]: Antioxidant activity assessed as O2 radical scavenging activity after 1 hr. The experiment is classed as functional.
The target of experiment [5] is Acetylcholinesterase (Electrophorus electricus, UniProt O42275). The experiment can be described thus: Inhibition of electric eel AChE using acetylthiocholine iodide as substrate measured at 1 min intervals for 5 mins by Ellman's method.
Chain of Acetylcholinesterase (O42275 whole entry): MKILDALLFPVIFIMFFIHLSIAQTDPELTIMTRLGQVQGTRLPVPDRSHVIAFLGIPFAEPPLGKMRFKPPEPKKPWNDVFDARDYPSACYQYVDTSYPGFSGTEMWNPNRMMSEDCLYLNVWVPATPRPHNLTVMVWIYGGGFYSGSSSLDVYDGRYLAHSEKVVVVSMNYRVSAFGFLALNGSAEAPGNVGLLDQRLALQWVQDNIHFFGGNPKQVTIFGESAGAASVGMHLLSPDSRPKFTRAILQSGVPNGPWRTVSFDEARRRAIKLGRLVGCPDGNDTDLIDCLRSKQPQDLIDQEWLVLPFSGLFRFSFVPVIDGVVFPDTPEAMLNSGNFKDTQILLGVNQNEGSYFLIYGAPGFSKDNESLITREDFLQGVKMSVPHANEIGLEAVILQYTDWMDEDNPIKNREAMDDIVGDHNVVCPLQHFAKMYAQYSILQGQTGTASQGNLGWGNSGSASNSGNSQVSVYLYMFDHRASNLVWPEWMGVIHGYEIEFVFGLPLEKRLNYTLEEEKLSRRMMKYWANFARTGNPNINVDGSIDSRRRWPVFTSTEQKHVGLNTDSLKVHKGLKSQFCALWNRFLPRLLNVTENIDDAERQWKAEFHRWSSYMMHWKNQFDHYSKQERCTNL
Experiment [6] concerns the target T1, Amyloid-beta precursor protein (Homo sapiens, UniProt P05067). The experiment is described as follows: Inhibition of beta amyloid (unknown origin) after 12 to 24 hrs.
Experiment [7] concerns the target T1, Amyloid-beta precursor protein. The experiment is described as follows: Inhibition of beta amyloid in human SH-SY5Y cells. The experiment is classed as cell-based.
Experiment [8] is described as follows: Antioxidant activity assessed as DPPH radical scavenging activity. The experiment is classed as functional.
Experiment [9] deals with Acetylcholinesterase (Electrophorus electricus) (UniProt O42275). The experiment is described as follows: Inhibition of electric eel AChE using acetylthiocholine iodide as substrate.
Chain of Acetylcholinesterase (Electrophorus electricus) (O42275 24-633 limits assumed): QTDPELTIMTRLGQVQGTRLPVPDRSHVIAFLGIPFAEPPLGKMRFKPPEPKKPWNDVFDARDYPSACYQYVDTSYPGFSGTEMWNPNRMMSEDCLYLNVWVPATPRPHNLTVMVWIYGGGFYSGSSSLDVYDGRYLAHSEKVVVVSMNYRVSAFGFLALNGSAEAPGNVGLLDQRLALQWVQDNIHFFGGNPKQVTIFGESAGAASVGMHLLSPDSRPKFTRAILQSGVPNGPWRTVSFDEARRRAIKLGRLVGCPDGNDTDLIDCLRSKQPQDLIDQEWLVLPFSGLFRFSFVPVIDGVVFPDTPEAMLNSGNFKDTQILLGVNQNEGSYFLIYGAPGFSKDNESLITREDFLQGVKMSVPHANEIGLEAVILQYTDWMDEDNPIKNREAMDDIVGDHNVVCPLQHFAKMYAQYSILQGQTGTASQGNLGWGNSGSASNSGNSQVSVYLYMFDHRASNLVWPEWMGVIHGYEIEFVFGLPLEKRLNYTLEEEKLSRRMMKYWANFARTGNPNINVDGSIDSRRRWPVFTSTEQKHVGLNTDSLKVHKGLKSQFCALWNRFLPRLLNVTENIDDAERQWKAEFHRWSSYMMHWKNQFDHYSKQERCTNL
The target of experiment [10] is T2, Amine oxidase [flavin-containing] A (Homo sapiens, UniProt P21397).
T2 sequence (P21397 whole entry): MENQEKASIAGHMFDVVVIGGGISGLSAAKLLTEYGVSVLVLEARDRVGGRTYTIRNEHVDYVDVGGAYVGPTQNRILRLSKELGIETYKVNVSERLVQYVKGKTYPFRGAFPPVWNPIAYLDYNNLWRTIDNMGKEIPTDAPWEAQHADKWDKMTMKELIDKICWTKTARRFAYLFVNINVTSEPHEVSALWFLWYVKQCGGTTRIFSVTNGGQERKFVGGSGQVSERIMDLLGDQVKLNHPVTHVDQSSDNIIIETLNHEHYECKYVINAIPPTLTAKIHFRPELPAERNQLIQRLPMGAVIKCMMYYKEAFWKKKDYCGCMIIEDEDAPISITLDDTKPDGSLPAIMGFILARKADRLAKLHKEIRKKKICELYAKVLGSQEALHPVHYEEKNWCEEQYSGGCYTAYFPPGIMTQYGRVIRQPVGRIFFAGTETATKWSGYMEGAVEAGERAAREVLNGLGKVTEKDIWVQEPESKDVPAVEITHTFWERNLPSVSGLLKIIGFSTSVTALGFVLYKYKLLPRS
The experiment is described as follows: Inhibition of MAO-A (unknown origin).

Experiment [11] is described as follows: Antioxidant activity assessed as DPPH radical scavenging activity after 1 hr. It is filed as functional.

T1 sequence (P05067 whole entry): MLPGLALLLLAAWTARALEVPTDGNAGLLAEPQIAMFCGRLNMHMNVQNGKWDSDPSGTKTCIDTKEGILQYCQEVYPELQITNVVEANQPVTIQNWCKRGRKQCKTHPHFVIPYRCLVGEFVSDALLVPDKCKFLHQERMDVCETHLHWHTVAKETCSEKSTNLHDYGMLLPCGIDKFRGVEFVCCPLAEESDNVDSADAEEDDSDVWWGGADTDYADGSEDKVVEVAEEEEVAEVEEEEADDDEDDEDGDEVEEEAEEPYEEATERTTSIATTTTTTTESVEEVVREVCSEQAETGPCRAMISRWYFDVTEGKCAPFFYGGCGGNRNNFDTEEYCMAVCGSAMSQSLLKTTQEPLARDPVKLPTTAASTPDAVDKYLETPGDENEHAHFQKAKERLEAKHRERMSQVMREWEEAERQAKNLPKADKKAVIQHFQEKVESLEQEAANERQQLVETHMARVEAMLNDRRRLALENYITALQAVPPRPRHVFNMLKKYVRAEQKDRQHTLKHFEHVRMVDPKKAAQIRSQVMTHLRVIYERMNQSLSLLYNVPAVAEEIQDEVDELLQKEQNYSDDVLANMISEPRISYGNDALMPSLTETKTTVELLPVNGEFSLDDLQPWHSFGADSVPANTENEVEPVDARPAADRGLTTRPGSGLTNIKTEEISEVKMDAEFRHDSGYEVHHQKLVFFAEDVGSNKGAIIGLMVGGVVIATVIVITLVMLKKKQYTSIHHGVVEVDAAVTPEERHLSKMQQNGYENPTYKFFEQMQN
Chain of Cholinesterase (Equus caballus) (P81908 whole entry): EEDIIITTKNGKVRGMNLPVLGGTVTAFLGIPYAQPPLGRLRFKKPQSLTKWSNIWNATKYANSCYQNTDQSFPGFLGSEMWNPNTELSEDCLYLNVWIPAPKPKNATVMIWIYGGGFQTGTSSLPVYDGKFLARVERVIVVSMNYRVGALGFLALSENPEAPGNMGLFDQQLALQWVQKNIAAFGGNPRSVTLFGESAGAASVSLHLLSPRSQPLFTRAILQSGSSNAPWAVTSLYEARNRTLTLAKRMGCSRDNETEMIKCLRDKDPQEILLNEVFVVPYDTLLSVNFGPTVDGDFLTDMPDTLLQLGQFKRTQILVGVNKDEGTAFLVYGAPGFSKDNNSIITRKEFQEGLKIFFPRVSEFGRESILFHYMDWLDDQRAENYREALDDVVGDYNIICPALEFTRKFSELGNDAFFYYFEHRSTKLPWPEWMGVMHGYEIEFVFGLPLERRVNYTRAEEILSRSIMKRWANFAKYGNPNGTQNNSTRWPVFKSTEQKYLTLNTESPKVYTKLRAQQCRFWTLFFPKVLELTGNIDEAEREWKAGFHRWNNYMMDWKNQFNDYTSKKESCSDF

`O=c1oc2c(O)c(O)cc3c(=O)oc4c(O)c(O)cc1c4c23` [ELLAGIC ACID] came in with an EC16 in [1] of 250 µM. Moreover, the IC50 is 1 to 150 µM in experiment [2]; 133 µM in [5]; 100 to 300 µM in [6]; 300 µM in [7]; 31.1 µM in [11]. The EC50 was found to be 24.2 µM in experiment [3], 177 µM in [4], 6.9 µM in experiment [8] and 1.6 µM in [10]. The EC24 in experiment [9] amounted to 250 µM.

The values are drawn from ChEMBL document CHEMBL4402535, “Ellagic acid a multi-target bioactive compound for drug discovery in CNS? A narrative review” (Eur J Med Chem, 2019).
